Assay results as given in patent US20230102860A1, “METHOD FOR C[…] FUNGICIDE-RESISTANT SOYBEAN RUST FUNGI” (SUMITOMO CHEMICAL COMPANY, LIMITED, priority 2020, published 2023).

Test system: soybean rust fungus (Phakopsora pachyrhizi) having an amino acid substitution of F129L on mitochondrial cytochrome b protein
Assay: Comparative Test Example 1: soybean leaf disk test at 50 ppm or 12.5 ppm, lesion area (Table A, Table B)
Type: in vivo
Experimental: A soybean leaf (cv; Kurosengoku) was punched out to 1 cm diameter to prepare a leaf disk. Each 1 mL of 1.2% agar medium was dispensed in 24 well microplate. A piece of the leaf disk was placed on each well. To a mixture of 0.5 μL of Sorpol (registered trademark) 1200KX, 4.5 μL of DMSO, and 5 μL of xylene was added 20 μL of a DMSO solution containing 10,000 ppm of the test compound. The resulting mixture was diluted with ion exchange water to prepare a spray solution containing a predetermined concentration of the test compound. The spray solution was sprayed in 10 μL per one leaf disk. After 1 day, an aqueous suspension of spores of soybean rust fungus (Phakopsora pachyrhizi) having an amino acid substitution of F129L on mitochondrial cytochrome b protein (1.0×10^5/mL) was inoculated onto the leaf disks. After the inoculation, the microplate was placed in a growth chamber (light on for 6 hours, light off for 18 hours, 23° C. temperature, 60% humidity). After 1 day, the leaf disks were air-dried to disappear water droplets on the surface of the leaf disk, and the microplate was placed again in the growth chamber for 10 to 14 days. Thereafter, a lesion area of soybean rust disease was assessed. […] Here the untreated means that the spray solution containing the test compound was not sprayed onto the leaf disk.
The test was conducted by using as a test compound the present compound 3, 5, 11, 59, 200, 202, 207, 214, 222, 294 or 391, or azoxystrobin, dimoxystrobin or metominostrobin, at the predetermined concentration of 50 ppm or 12.5 ppm according to a method described in the Test Example 1. The results thereof are indicated in [Table A] and [Table B].

SMILES	Lesion Area at each concentration (%) (12.5 ppm)	Lesion Area at each concentration (%) (50 ppm)
CNC(=O)/C(=N/OC)c1ccccc1COc1cc(C)ccc1C	100%	100%
CO/C=C(/C(=O)OC)c1ccc(OC)cc1C#CCC(C)C	0%	0%
CO/C=C(/C(=O)OC)c1ccc(Cl)cc1C#CCC(C)C	0%	0%
CO/C=C(/C(=O)OC)c1ccccc1COc1ccn(-c2ccc(Cl)cc2)n1	10%	0%
CCc1ccc(/C(=C\OC)C(=O)OC)c(/C=C/C2CC2)c1	0%	0%
CO/C=C(/C(=O)OC)c1c(C)cccc1CO/N=C(\C)c1ccc(Cl)cc1	0%	0%
CO/C=C(/C(=O)OC)c1ccccc1Oc1cc(Oc2ccccc2C#N)ncn1	100%	100%
CO/C=C(/C(=O)OC)c1ccccc1/C=C/C1CC1C (stereo not shown)	0%	0%
CO/C=C(/C(=O)OC)c1ccccc1/C=C/C1CC1(F)F (stereo not shown)	0%	0%
CO/C=C(/C(=O)OC)c1ccc(Cl)cc1/C=C/C1CC1(C)C (stereo not shown)	0%	0%
CCCCC#Cc1cc(Cl)ccc1/C(=C\OC)C(=O)OC	0%	0%
CNC(=O)/C(=N/OC)c1ccccc1COc1ccn(-c2ccc(Cl)cc2)n1	10%	0%
CO/C=C(/C(=O)OC)c1ccc(Cl)cc1C#CCC1CCCC1	0%	0%
CNC(=O)/C(=N/OC)c1ccccc1Oc1ccccc1	100%	100%
